Assay [1] addresses T1, BRD4(1) (Homo sapiens, UniProt O60885).
T1 construct: BRD4-BD1 was expressed and purified as described previously; made in house
Nature of the assay: Isothermal titration calorimetry, dissociation constant KD BRD4(1). It is filed as binding. The procedure: BRD4-BD1 was expressed and purified as described previously (Filippakopoulos et al, (2012), Cell 149(1): […]) with the exception of the final buffer for crystallization and ITC analysis (20 mM Hepes/NaOH pH 7.5, 150 mM NaCl). Crystals were grown in the presence of 3.5 M Na-Formate (pH 7.5) at a protein concentration of 10 mg/ml and a ligand concentration of 2 mM added directly to the protein prior to crystallization from a 100 mM stock solution in DMSO. Data were collected at 100K using either a Rigaku HF-007 rotating anode X-ray generator equipped with VariMaxHF optics and a Saturn944 CCD detector or a mar345 image plate respectively at λ=1.54179 Å or at the PXI beamline at the Swiss Light Source at λ=1.000 Å with a Pilatus detector. Data processing and reduction was done with iMOSFLM (Leslie AGW PH (2007), Evolving Methods for Macromolecular Crystallography 245, 41.51), POINTLESS, and SCALA (Kabsch W (2010) Xds. Acta crystallographica. Section D, Biological crystallography 66(Pt 2):125-132; Bruker (2008) SADABS, SAINT and XPREP (Bruker AXS Inc., Madison, Wis., USA); Collaborative Computational Project N (1994) The CCP4 suite: programs for protein crystallography, Acta crystallographica, Section D, Biological crystallography 50(Pt 5):760-763), or with XDS, XSCALE, XDSCONV (Evans P (2006), Scaling and assessment of data quality, Acta crystallographica, Section D, Biological crystallography 62(Pt 1):72-82), and XPREP (Evans P R (2011), An introduction to data reduction: space-group determination, scaling and intensity statistics, Acta crystallographica, Section D, Biological crystallography 67(Pt 4):282-292).
Data were obtained in discrete titration experiments with an injection volume of 12 μl per injection. Subsequently, the heats per injection were calculated as integrals and after normalization against the molar concentrations plotted against the molar ratio as implemented in Microcal Origin. Finally, data were fitted according to a single set of sites binding model with
The dissociation constant Kd, is commonly used to describe the affinity between a ligand L and a protein, i.e. how tightly a ligand binds to a particular protein. The dissociation constant has molar units which correspond to the concentration of ligand at which the binding site on a particular protein is half occupied, i.e. the concentration of the ligand at which the concentration of protein with ligand bound equals the concentration of protein with no ligand bound. The smaller the dissociation constant, the higher the affinity between ligand and protein.

A further assay deals with HL-60 cells. In words: GI50 in a culture of HL-60 cells. Type of assay: cell-based. Conditions: concentration required to reduce the population of a culture of HL-60 cells by 50%.
For assay [2], the target named is T1, BRD4(1). In words: BROMOscan Kd determination BRD4(1). Type of assay: binding. The method, then: (§1) Bromodomain profiling was carried out on the basis of BROMOscan™. This platform accounted for the indirect determination of the dissociation constants between 19 bromodomains and the compound of formula (13), by binding competition against a reference immobilized ligand. Compounds that bind the bromodomain prevent its binding to the immobilized ligand thus reducing the amount of protein captured. […] Hits are identified by measuring the amount of bromodomain captured in test versus control samples. Bromodomain assays for Kd determination: T7 phage strains displaying bromodomains were grown in parallel in 24-well blocks in an E. coli host derived from the BL21 strain. E. coli were grown to log-phase and infected with T7 phage from a frozen stock (multiplicity of infection=0.4) and incubated with shaking at 32° C. until lysis (90-150 minutes). The lysates were centrifuged (5,000×g) and filtered (0.2 μm) to remove cell debris. […] The liganded beads were blocked with excess biotin and washed with blocking buffer (SeaBlock (Pierce), 1% BSA, 0.05% Tween 20, 1 mM DTT) to remove unbound ligand and to reduce non-specific phage binding. […] Test compounds were prepared as 1000× stocks in 100% DMSO. Kds were determined using an 11-point 3-fold compound dilution series with one DMSO control point. All compounds for Kd measurements are distributed by acoustic transfer (non-contact dispensing) in 100% DMSO. The compounds were then diluted directly into the assays such that the final concentration of DMSO was 0.09%. All reactions performed in polypropylene 384-well plates. Each was a final volume of 0.02 ml. […] The bromodomain concentration in the eluates was measured by qPCR. […] All compounds for Kd measurements are distributed by acoustic transfer (non-contact dispensing) in 100% DMSO. The compounds were then diluted directly into the assays such that the final concentration of DMSO was 0.09%. Most Kds were determined using a compound top concentration=10,000 nM. If the initial Kd determined was <0.169 nM (the lowest concentration tested), the measurement was repeated with a serial dilution starting at a lower top concentration. Binding Constants (Kds): Binding constants (Kds) were calculated with a standard dose-response curve using the Hill equation: The Hill Slope was set to −1. Curves were fitted using a non-linear least square fit with the Levenberg-Marquardt algorithm.

The next assay deals with T2, BRD7 (Homo sapiens, UniProt Q9NPI1).
T2 construct: T7 phage strains displaying bromodomains were grown; host or cells: T7 phage in E. coli derived from BL21
T2 sequence (Q9NPI1 131-235 limits assumed): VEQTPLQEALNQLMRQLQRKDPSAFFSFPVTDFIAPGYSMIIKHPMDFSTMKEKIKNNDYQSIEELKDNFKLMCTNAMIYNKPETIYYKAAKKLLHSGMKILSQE
In words: BROMOscan Kd determination BRD7. It is filed as binding. The procedure:
as §1

The target in a further assay is T3, BRD9 (Homo sapiens, UniProt Q9H8M2).
T3 construct: T7 phage strains displaying bromodomains were grown; host or cells: T7 phage in E. coli derived from BL21
T3 sequence (Q9H8M2 136-240 limits assumed): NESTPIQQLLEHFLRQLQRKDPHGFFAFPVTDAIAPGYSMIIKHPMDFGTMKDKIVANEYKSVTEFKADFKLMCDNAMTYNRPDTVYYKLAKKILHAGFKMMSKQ
In words: BROMOscan Kd determination BRD9. Type of assay: binding. The method, then:
as §1

Another assay deals with T4, BRPF1 (Homo sapiens, UniProt P55201).
T4 construct: T7 phage strains displaying bromodomains were grown; host or cells: T7 phage in E. coli derived from BL21
T4 sequence (P55201 628-732 limits assumed): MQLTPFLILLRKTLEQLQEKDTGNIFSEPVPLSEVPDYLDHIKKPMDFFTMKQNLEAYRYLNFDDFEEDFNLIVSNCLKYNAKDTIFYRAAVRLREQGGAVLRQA
Nature of the assay: BROMOscan Kd determination BRPF1. It is filed as binding. The procedure:
as §1

The target of a further assay is T5, CECR2 (Homo sapiens, UniProt Q9BXF3).
T5 construct: T7 phage strains displaying bromodomains were grown; host or cells: T7 phage in E. coli derived from BL21
In words: BROMOscan Kd determination CECR2. It is filed as binding. The method, then:
as §1

In another assay the target is T6, EP300 (Homo sapiens, UniProt Q09472).
T6 construct: T7 phage strains displaying bromodomains were grown; host or cells: T7 phage in E. coli derived from BL21
T6 sequence (Q09472 1049-1156 limits assumed): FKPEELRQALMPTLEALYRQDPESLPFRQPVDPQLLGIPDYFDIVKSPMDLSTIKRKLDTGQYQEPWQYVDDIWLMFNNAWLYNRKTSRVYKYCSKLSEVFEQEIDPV
Nature of the assay: BROMOscan Kd determination EP300. Type of assay: binding. The procedure:
as §1

The next assay addresses T7, BRPF1B (Homo sapiens, UniProt P55201).
T7 construct: dissociation constants KD for two bromodomains (BRD4(1) and BRPF1B)
T7 sequence (P55201 628-732 limits assumed): T4 sequence (P55201 628-732 limits assumed)
In words: Dissociation constant KD BRPF1B. Type of assay: binding.

A further assay deals with P. falciparum cultures. In words: Plasmodium falciparum inhibitor treatment for 72 hours, parasitemia by flow cytometry. Type of assay: cell-based. Conditions: 100 μm of compound, vs DMSO control, early ring, mid trophozoite and schizont stages. The procedure:
Plasmodium falciparum Inhibitor Treatment for 72 Hours (One Replication Cycle) P. falciparum cultures were treated for 72 hours with 100 μm of compounds (19) to (22), (24) and (25) or DMSO as control. The cultures were stained for DNA content with fluorescent dye Hoechst 33342 (20 μm) and for RNA content with thiazole orange (1 μm). The double negative population represented uninfected erythrocytes (devoid of DNA and low in RNA content) whereas the P. falciparum infected erythrocytes were gated as early ring, mid trophozoite and late schizont stages based on their DNA and RNA content.
(In flow cytometry, cells or beads pass a laser one at a time.)

T5 sequence (Q9BXF3 434-538 limits assumed): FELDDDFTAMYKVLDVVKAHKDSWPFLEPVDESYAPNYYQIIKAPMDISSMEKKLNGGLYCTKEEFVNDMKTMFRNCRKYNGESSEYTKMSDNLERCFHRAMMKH

As for `CCN(CC)S(=O)(=O)c1ccc(OC)c(NC(=O)c2[nH]c(C)c3c2CCCCC3=O)c1` [Compound 11, N-(5-(N,N-diethylsulfamoyl)-2-methoxyphenyl)-3-methyl-4-oxo-2,4,5,6,7,8-hexahydrocyclohepta[c]pyrrole-1-carboxamide], the Kd worked out at 144 nM at BRD4(1) [1]; 85 nM at BRD4(1) [2]; 250 nM at BRD7; 160 nM on BRD9; 420 nM on BRPF1; 1100 nM on CECR2. This compound also came in with a Kd on EP300 of 2100 nM. For the same compound, the GI50HL60 in the assay on HL-60 cells is recorded as 1360 nM.

In the case of `CCOC(=O)c1[nH]c(C)c2c1CCC=CC2=O` [Compound 9, Ethyl 3-methyl-4-oxo-2,4,7,8-tetrahydrocyclohepta[c]pyrrole-1-carboxylate], the results for the Kd on BRD4(1) [1] and on BRPF1B were 8280 nM and 2050 nM, respectively.

`Cc1[nH]c(-c2ccc3cc[nH]c3c2)c2c1C(=O)CCCC2` [Compound 24, 1-(1H-indol-6-yl)-3-methyl-5,6,7,8-tetrahydrocyclohepta[c]pyrrol-4(2H)-one]: binding on BRPF1B was characterised by a dissociation constant (Kd) of 639 nM. Besides, the degree of parasitemia entry in the assay with P. falciparum cultures is “particularly effective”.

For the compound `COc1ccc(S(=O)(=O)N2CCCCCC2)cc1NC(=O)c1[nH]c(C)c2c1CCCCC2=O` [Compound 12, N-(5-(azepan-1-ylsulfonyl)-2-methoxyphenyl)-3-methyl-4-oxo-2,4,5,6,7,8-hexahydrocyclohepta[c]pyrrole-1-carboxamide], the equilibrium dissociation constant (Kd) was determined as 177 nM at BRD4(1) [1]; 170 nM on BRD4(1) [2]; 310 nM at BRD7; 530 nM on BRD9; 2500 nM at BRPF1; 8100 nM on CECR2. Further, on EP300, the Kd stood at 9000 nM. This compound gave a GI50HL60 in the assay with HL-60 cells of 570 nM.

As to `CCOC(=O)c1[nH]c(C)c2c1CCCCC2=O` [Compound 8, Ethyl 3-methyl-4-oxo-2,4,5,6,7,8-hexahydrocyclohepta[c]pyrrole-1-carboxylate], the Kd at BRD4(1) [1] is 4560 nM; at BRPF1B, 1050 nM.

As for `Cc1[nH]c(-c2ccccc2)c2c1C(=O)CCCC2` [Compound 21], the Kd on BRPF1B came to 1990 nM.

In the case of `Cc1noc(-c2[nH]c(C)c3c2CCCCC3=O)n1` [Compound 22], the Kd on BRPF1B was found to be 2310 nM.

Compound `Cc1[nH]c(-c2cccc(O)c2)c2c1C(=O)CCCC2` [Compound 19] came in with a Kd at BRPF1B of 910 nM.

In the case of `CNC(=O)c1[nH]c(C)c2c1CCCCC2=O` [1″], the Kd came to 6410 nM on BRD4(1) [1] and 5080 nM at BRPF1B.

For the compound `CCN(CC)S(=O)(=O)c1ccc(O)c(NC(=O)c2[nH]c(C)c3c2CCCCC3=O)c1` [Compound 18], the Kd on BRD4(1) [1] is 72.2 nM.

As to `Cc1[nH]c(-c2cccc(N)c2)c2c1C(=O)CCCC2` [Compound 20], the affinity at BRPF1B, expressed as Kd, was 567 nM.

For `COc1ccc(S(=O)(=O)N2CCCCC2)cc1NC(=O)c1[nH]c(C)c2c1CCCCC2=O` [Compound 15], the Kd at BRD4(1) [1] was found to be 47.3 nM; on BRD4(1) [2], 82 nM; at BRD7, 440 nM; on BRD9, 300 nM; on BRPF1, 1800 nM; at CECR2, 580 nM. Besides, at EP300, the affinity, expressed as Kd, was 3500 nM.

With `Cc1[nH]c(-c2cccc(C(N)=O)c2)c2c1C(=O)CCCC2` [Compound 25], on BRPF1B, binding was characterised by a dissociation constant (Kd) of 713 nM.

For `COc1ccc(S(=O)(=O)N2CCN(C)CC2)cc1NC(=O)c1[nH]c(C)c2c1CCCCC2=O` [Compound 14], the Kd turned out to be 260 nM on BRD4(1) [1]; 300 nM at BRD4(1) [2]; 160 nM at BRD7; 68 nM on BRD9; 320 nM on BRPF1; 240 nM on CECR2. The compound also registered an equilibrium dissociation constant (Kd) at EP300 of 1800 nM. Besides, the GI50HL60 in the assay with HL-60 cells stood at 2080 nM.

For the compound `COc1ccc(S(=O)(=O)N2CC3(COC3)C2)cc1NC(=O)c1[nH]c(C)c2c1CCCCC2=O` [Compound 16], the Kd on BRD4(1) [1] came out at 417 nM; at BRD4(1) [2], 150 nM; on BRD7, 5.5 nM; at BRD9, 4.3 nM; at BRPF1 it was 1300 nM; at CECR2, 760 nM. The Kd on EP300 came to 990 nM.

One may read the Kd as the concentration at which binding is half-saturated. A low value points to tighter binding.

The values above are taken from patent publication US20220055989A1, “CONDENSED PYRROLES AS NOVEL BROMODOMAIN INHIBITORS” (ALBERT LUDWING UNIVERSITÄT FREIBURG, priority 2018, published 2022).
